Columns and labels:
Assay in all cases: relative viability (nuclei count vs DMSO), 5 days (fraction); higher = more cells survive
NCI-H1666 = test system: NCI-H1666
How it was run: (§1)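 Dosing by pin tool came one day after lung cancer cell lines were seeded in 1536-well plates, using either one drug or a fixed anchor-drug dose plus five library-drug doses (not always all listed) in √10 steps. After 5 days, nuclei were counted on 4× images. Relative viability is treated-well nuclei count divided by vehicle-well nuclei count, and values are medians of duplicate plates.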

NCI-H1734 = test system: NCI-H1734
How it was run: as §1

NCI-H1755 = test system: NCI-H1755
How it was run: as §1

NCI-H1975 = test system: NCI-H1975
How it was run: as §1

NCI-H2170 = test system: NCI-H2170
How it was run: as §1

NCI-H23 = test system: NCI-H23
How it was run: as §1

NCI-H441 = test system: NCI-H441
How it was run: as §1

NCI-H520 = test system: NCI-H520
How it was run: as §1

NCI-H596 = test system: NCI-H596
How it was run: as §1

PC-3 [JPC-3] = test system: PC-3 [JPC-3]
How it was run: as §1

SK-MES-1 = test system: SK-MES-1
How it was run: as §1

O=c1cc(N2CCOCC2)oc2c(-c3cccc4c3sc3ccccc34)cccc12 + CS(=O)(=O)N1CCN(Cc2cc3nc(-c4cccc5[nH]ncc45)nc(N4CCOCC4)c3s2)CC1 [Pictilisib] (partner 1 µM)
relative viability (NCI-H1666; first compound 0.1 µM): 0.504 | relative viability (NCI-H1666; first compound 0.3162 µM): 0.412 | relative viability (NCI-H1666; first compound 1 µM): 0.339 | relative viability (NCI-H1734; first compound 0.01 µM): 0.445 | relative viability (NCI-H1734; first compound 0.03162 µM): 0.472 | relative viability (NCI-H1734; first compound 0.1 µM): 0.452 | relative viability (NCI-H1734; first compound 0.3162 µM): 0.504 | relative viability (NCI-H1734; first compound 1 µM): 0.446 | relative viability (NCI-H1755; first compound 0.01 µM): 0.288 | relative viability (NCI-H1755; first compound 0.03162 µM): 0.402 | relative viability (NCI-H1755; first compound 0.1 µM): 0.457 | relative viability (NCI-H1755; first compound 0.3162 µM): 0.458 | relative viability (NCI-H1755; first compound 1 µM): 0.395 | relative viability (NCI-H1975; first compound 0.01 µM): 0.272 | relative viability (NCI-H1975; first compound 0.03162 µM): 0.307 | relative viability (NCI-H1975; first compound 0.1 µM): 0.287 | relative viability (NCI-H1975; first compound 0.3162 µM): 0.305 | relative viability (NCI-H1975; first compound 1 µM): 0.28 | relative viability (NCI-H2170; first compound 0.01 µM): 0.299 | relative viability (NCI-H2170; first compound 0.03162 µM): 0.331 | relative viability (NCI-H2170; first compound 0.1 µM): 0.369 | relative viability (NCI-H2170; first compound 0.3162 µM): 0.375 | relative viability (NCI-H2170; first compound 1 µM): 0.344 | relative viability (NCI-H23; first compound 0.01 µM): 0.529 | relative viability (NCI-H23; first compound 0.03162 µM): 0.422 | relative viability (NCI-H23; first compound 0.3162 µM): 0.513 | relative viability (NCI-H23; first compound 1 µM): 0.442 | relative viability (NCI-H441; first compound 0.01 µM): 0.561 | relative viability (NCI-H441; first compound 0.03162 µM): 0.483 | relative viability (NCI-H441; first compound 0.1 µM): 0.487 | relative viability (NCI-H441; first compound 0.3162 µM): 0.438 | relative viability (NCI-H441; first compound 1 µM): 0.579 | relative viability (NCI-H520; first compound 0.01 µM): 0.304 | relative viability (NCI-H520; first compound 0.03162 µM): 0.321 | relative viability (NCI-H520; first compound 0.1 µM): 0.282 | relative viability (NCI-H520; first compound 0.3162 µM): 0.305 | relative viability (NCI-H520; first compound 1 µM): 0.312 | relative viability (NCI-H596; first compound 0.01 µM): 0.442 | relative viability (NCI-H596; first compound 0.03162 µM): 0.39 | relative viability (NCI-H596; first compound 0.1 µM): 0.38 | relative viability (NCI-H596; first compound 0.3162 µM): 0.395 | relative viability (NCI-H596; first compound 1 µM): 0.38 | relative viability (PC-3 [JPC-3]; first compound 0.01 µM): 0.751 | relative viability (PC-3 [JPC-3]; first compound 0.03162 µM): 0.747 | relative viability (PC-3 [JPC-3]; first compound 0.1 µM): 0.711 | relative viability (PC-3 [JPC-3]; first compound 0.3162 µM): 0.727 | relative viability (PC-3 [JPC-3]; first compound 1 µM): 0.739 | relative viability (SK-MES-1; first compound 0.01 µM): 0.327 | relative viability (SK-MES-1; first compound 0.03162 µM): 0.314 | relative viability (SK-MES-1; first compound 0.1 µM): 0.396 | relative viability (SK-MES-1; first compound 0.3162 µM): 0.31 | relative viability (SK-MES-1; first compound 1 µM): 0.362

Reference: the supplement of paper PMC10307832
